The source of these data is ChEMBL document CHEMBL1140310, “[Nalpha-benzylTyr1,cyclo(D-Asp5,Dap8)]- dynorphin A-(1-11)NH2 cyclized in the "address" domain is a novel kappa-opioid receptor antagonist” (J Med Chem, 2005).

A word on the Ki: it is the equilibrium dissociation constant of an inhibitor or competing ligand from its target. Read a low Ki as tighter binding.

Molecules are shown by their SMILES.

Assay [1] is described as follows: Inhibition of [3H]-DPDPE (cyclo[D-Pen2,D-Pen5]enkep halin) binding to delta opioid receptor expressed in CHO cells. The class given is cell-based.
Assay [2] is described as follows: Inhibition of [3H]diprenorphine binding to kappa opioid receptor expressed in CHO cells. The class given is cell-based.
Assay [3] in a line: Relative binding affinity for kappa and delta opioid receptors.
Assay [4] can be described thus: Inhibition of [3H]DAMGO ([D-Ala2,NMePhe4,glyol]-enkephalin) binding to mu opioid receptor expressed in CHO cells. Format: cell-based.
The nature of assay [5]: Relative binding affinity for kappa and mu opioid receptors.

Regarding `NCCCC[C@H](NC(=O)[C@@H]1CCCN1C(=O)[C@H](CCCN=C(N)N)NC(=O)[C@@H]1CNC(=O)C[C@H](NC(=O)[C@H](Cc2ccccc2)NC(=O)CNC(=O)CNC(=O)[C@H](Cc2ccc(O)cc2)NCc2ccccc2)C(=O)N[C@H](CCCN=C(N)N)C(=O)N[C@@H](CCCN=C(N)N)C(=O)N1)C(N)=O`, the Ki in assay [1] is over 10000 nM; in assay [2] it was 30.3 nM; in assay [4], 5880 nM. Also, the values for the Ratio in assay [3] and in assay [5] were 0.003 and 0.005, respectively.

With `CC(=O)NC[C@H](NC(=O)[C@H](CCCNC(=N)N)NC(=O)[C@H](CCCNC(=N)N)NC(=O)[C@@H](CC(N)=O)NC(=O)[C@H](Cc1ccccc1)NC(=O)CNC(=O)CNC(=O)[C@H](Cc1ccc(O)cc1)NCc1ccccc1)C(=O)N[C@@H](CCCNC(=N)N)C(=O)N1CCC[C@H]1C(=O)N[C@@H](CCCCN)C(N)=O`, the inhibition constant (Ki) was over 10000 nM in assay [1], 66.9 nM in assay [2] and 1660 nM in assay [4]. Further, the Ratio in assay [3] is 0.007; in assay [5] it was 0.04.

Turning to `CC[C@H](C)[C@H](NC(=O)[C@H](CCCN=C(N)N)NC(=O)[C@H](CCCN=C(N)N)NC(=O)[C@H](CC(C)C)NC(=O)[C@H](Cc1ccccc1)NC(=O)CNC(=O)CNC(=O)[C@@H](N)Cc1ccc(O)cc1)C(=O)N[C@@H](CCCN=C(N)N)C(=O)N1CCC[C@H]1C(=O)N[C@@H](CCCCN)C(N)=O`, the Ki is 6.18 nM in assay [1] and 0.57 nM in assay [2]. Besides, the Ratio amounted to 0.09 in assay [3] and 0.33 in assay [5].
